Assay results: patent US20150105252A1, “SUBSTITUTED PYRAZOLES AS HERBICIDES” (E I DU PONT DE NEMOURS AND COMPANY, priority 2013, published 2015)

Legend:
nutsedge, yellow [1] = test: Test C preemergence; format: in vivo, Cyperus esculentus; conditions: for Plant response rating (scale of 0 to 100), Nutsedge, Yellow: Preemergence; for Nutsedge, Yellow plant response rating / Plant response rating, Nutsedge, Yellow: preemergence; for Plant response rating, Nutsedge, Yellow: scale 0 to 100, 0 = no effect, 100 = complete control
Summary of the method: (§1)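 Greenhouse pot test: preemergence application onto freshly seeded loam/sand mix, postemergence application onto seedlings (1–4 leaves, 2–18 cm) in peat-vermiculite substrate. Responses scored visually 13 to 15 days later relative to controls, where 0 means no effect and 100 means complete control; a dash indicates no result.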

oat, wild = test: Test C postemergence; format: in vivo, Avena fatua; conditions: for Oat, Wild plant response rating: scale 0 to 100
Source text: (§2) Seeds of plant species selected from blackgrass (Alopecurus myosuroides), ryegrass, Italian (Italian ryegrass, Lolium multiflorum), wheat (winter wheat, Triticum aestivum), galium (catchweed bedstraw, Galium aparine), corn (Zea mays), crabgrass, large (large crabgrass, Digitaria sanguinalis), foxtail, giant (giant foxtail, Setaria faberii), johnsongrass (Sorghum halepense), lambsquarters (Chenopodium album), morningglory (Ipomoea coccinea), nutsedge, yellow (yellow nutsedge, Cyperus esculentus), pigweed (redroot pigweed, Amaranthus retroflexus), ragweed (common ragweed, Ambrosia elation), soybean (Glycine max), barnyardgrass (Echinochloa crus-galli), oilseed rape (Brassica napus), waterhemp (common waterhemp, Amaranthus rudis), oat, wild (wild oat, Avena fatua), kochia (Kochia scoparia), Surinam grass (Brachiaria decumbens), foxtail, green (green foxtail, Setaria viridis), goosegrass (Eleusine indica), bromegrass, downy (downy bromegrass, Bromus tectorum), nightshade (eastern black nightshade, Solanum ptycanthum), cocklebur (common cocklebur, Xanthium strumarium), cupgrass, woolly (woolly cupgrass, Eriochloa villosa), bermudagrass (Cynodon dactylon), sunflower, (common oilseed sunflower, Helianthus annuus), Russian thistle (Salsola kali), and velvetleaf (Abutilon theophrasti) were planted into a blend of loam soil and sand and treated preemergence with test chemicals formulated in a non-phytotoxic solvent mixture which included a surfactant.
(§3) At the same time, plants selected from these crop and weed species and also chickweed (common chickweed, Stellaria media), canarygrass (littleseed canarygrass, Phalaris minor), and deadnettle (henbit deadnettle, Lamium amplexicaule), were planted in pots containing Redi-Earth® planting medium (Scotts Company, 14111 Scottslawn Road, Marysville, Ohio 43041) comprising spaghnum peat moss, vermiculite, wetting agent and starter nutrients and treated with postemergence applications of test chemicals formulated in the same manner. Plants ranged in height from 2 to 18 cm (1- to 4-leaf stage) for postemergence treatments. Treated plants and controls were maintained in a greenhouse for 13 to 15 days, after which time all species were compared to controls and visually evaluated. Plant response ratings, summarized in Table C, are based on a scale of 0 to 100 where 0 is no effect and 100 is complete control. A dash (-) response means no test result.

wheat = test: Test C preemergence; format: in vivo, Triticum aestivum; conditions: for Plant response rating (scale of 0 to 100), Wheat: Preemergence; for Wheat plant response rating / Plant response rating, Wheat: preemergence; for Plant response rating, Wheat: scale 0 to 100, 0 = no effect, 100 = complete control
Summary of the method: as §1

ryegrass, Italian = test: Test C postemergence; format: in vivo, Lolium multiflorum; conditions: postemergence
Summary of the method: as §1

rice = test: Test B flood; format: in vivo, Oryza sativa; conditions: 250 g ai/ha, visual rating on 0 to 100 scale (0 no effect, 100 complete control), 13 to 15 days
Summary of the method: (§4)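 Flooded-pot test: compound dosed into 3 cm of standing water above soil when plants had two leaves. Visual control ratings (0–100) versus untreated plants after 13–15 d.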

lambsquarters = test: Test C preemergence; format: in vivo, Chenopodium album; conditions: for Plant response rating (scale of 0 to 100), Lambsquarters: Preemergence; for Lambsquarters plant response rating / Plant response rating, Lambsquarters: preemergence; for Plant response rating, Lambsquarters: scale 0 to 100, 0 = no effect, 100 = complete control
Summary of the method: as §1

blackgrass = test: Test C preemergence; format: in vivo, Alopecurus myosuroides; conditions: for Plant response rating (scale of 0 to 100), Blackgrass: Preemergence; for Blackgrass plant response rating / Plant response rating, Blackgrass: preemergence; for Plant response rating, Blackgrass: scale 0 to 100, 0 = no effect, 100 = complete control
Summary of the method: as §1

johnsongrass = test: Test C postemergence; format: in vivo, Sorghum halepense; conditions: for Johnsongrass plant response rating: scale 0 to 100
Source text: as §2, §3

morningglory = test: Test C postemergence; format: in vivo, Ipomoea coccinea; conditions: for Morningglory plant response rating: scale 0 to 100
Summary of the method: as §1

foxtail, giant = test: Test C postemergence; format: in vivo, Setaria faberii; conditions: for Foxtail, Giant plant response rating: scale 0 to 100
Source text: as §2, §3

pigweed = test: Test C postemergence; format: in vivo, Amaranthus retroflexus; conditions: for Pigweed plant response rating: scale 0 to 100
Source text: as §2, §3

nutsedge, yellow [2] = test: Test C postemergence; format: in vivo, Cyperus esculentus; conditions: for Nutsedge, Yellow plant response rating: scale 0 to 100
Source text: as §2, §3

barnyardgrass = test: Test B flood; format: in vivo, Echinochloa crus-galli; conditions: 250 g ai/ha, visual rating on 0 to 100 scale (0 no effect, 100 complete control), 13 to 15 days
Summary of the method: as §4

[3] = 31 g ai/ha, scale 0 to 100 (0 no effect, 100 complete control), 13 to 15 days
[4] = 125 g ai/ha, scale 0 to 100, 0 is no effect, 100 is complete control
[5] = postemergence, 250 g ai/ha, scale 0 to 100 (0 no effect, 100 complete control)
[6] = postemergence, 125 g ai/ha, scale 0 to 100, 0 no effect, 100 complete control
[7] = 250 g ai/ha, scale 0 to 100 (0 no effect, 100 complete control)
[8] = 125 g ai/ha, scale 0 to 100, 0 no effect, 100 complete control
[9] = 31 g ai/ha, visual rating, scale 0 to 100 (0 no effect, 100 complete control), 13 to 15 days
[10] = 62 g ai/ha, scale 0 to 100 (0 no effect, 100 complete control), 13 to 15 days
[11] = 250 g ai/ha, scale 0 to 100, 0 is no effect, 100 is complete control
[12] = postemergence, 62 g ai/ha, scale 0 to 100, 0 no effect, 100 complete control

## Cc1cc(C(=O)NCC(F)(F)F)nn1Cc1ccnc(C(F)(F)F)c1 [Compound 74]
nutsedge, yellow [1]; 250 g ai/ha
  Plant response rating (scale of 0 to 100), Nutsedge, Yellow: 98
nutsedge, yellow [1]; [3]
  Nutsedge, Yellow plant response rating: 15
nutsedge, yellow [1]; 62 g ai/ha, 13 to 15 days
  Plant response rating, Nutsedge, Yellow: 60
nutsedge, yellow [1]; [4]
  Nutsedge, Yellow plant response rating: 80
oat, wild; Postemergence, 31 g ai/ha
  Oat, Wild plant response rating: 0
oat, wild; postemergence, 62 g ai/ha
  Oat, Wild plant response rating: 0
oat, wild; [5]
  Plant response rating, Oat, Wild: 5
oat, wild; [6]
  Plant response rating, Oat, Wild: 5
wheat; 250 g ai/ha
  Plant response rating (scale of 0 to 100), Wheat: 90
wheat; [3]
  Wheat plant response rating: 0
wheat; 62 g ai/ha, 13 to 15 days
  Plant response rating, Wheat: 5
wheat; [4]
  Wheat plant response rating: 15
ryegrass, Italian; 62 g ai/ha, scale 0 to 100
  Ryegrass, Italian plant response rating: 0
ryegrass, Italian; [7]
  Plant response rating, Ryegrass, Italian: 0
ryegrass, Italian; [8]
  Plant response rating, Ryegrass, Italian: 0
rice
  Plant response rating, Rice: 0
lambsquarters; 250 g ai/ha
  Plant response rating (scale of 0 to 100), Lambsquarters: 95
lambsquarters; [3]
  Lambsquarters plant response rating: 85
lambsquarters; 62 g ai/ha, 13 to 15 days
  Plant response rating, Lambsquarters: 90
lambsquarters; [4]
  Lambsquarters plant response rating: 90
blackgrass; 250 g ai/ha
  Plant response rating (scale of 0 to 100), Blackgrass: 90
blackgrass; [3]
  Blackgrass plant response rating: 10
blackgrass; 62 g ai/ha, 13 to 15 days
  Plant response rating, Blackgrass: 85
blackgrass; [4]
  Blackgrass plant response rating: 90
johnsongrass; Postemergence, 31 g ai/ha
  Johnsongrass plant response rating: 0
johnsongrass; postemergence, 62 g ai/ha
  Johnsongrass plant response rating: 0
johnsongrass; [5]
  Plant response rating, Johnsongrass: 15
johnsongrass; [6]
  Plant response rating, Johnsongrass: 5
morningglory; Postemergence, 31 g ai/ha
  Morningglory plant response rating: 70
morningglory; postemergence, 62 g ai/ha
  Morningglory plant response rating: 75
morningglory; [5]
  Plant response rating, Morningglory: 80
morningglory; [6]
  Plant response rating, Morningglory: 75
foxtail, giant; Postemergence, 31 g ai/ha
  Foxtail, Giant plant response rating: 5
foxtail, giant; postemergence, 62 g ai/ha
  Foxtail, Giant plant response rating: 10
foxtail, giant; [5]
  Plant response rating, Foxtail, Giant: 25
foxtail, giant; [6]
  Plant response rating, Foxtail, Giant: 10
pigweed; Postemergence, 31 g ai/ha
  Pigweed plant response rating: 60
pigweed; postemergence, 62 g ai/ha
  Pigweed plant response rating: 65
pigweed; [5]
  Plant response rating, Pigweed: 80
pigweed; [6]
  Plant response rating, Pigweed: 80
nutsedge, yellow [2]; Postemergence, 31 g ai/ha
  Nutsedge, Yellow plant response rating: 0
nutsedge, yellow [2]; postemergence, 62 g ai/ha
  Nutsedge, Yellow plant response rating: 5
nutsedge, yellow [2]; [5]
  Plant response rating, Nutsedge, Yellow: 15
nutsedge, yellow [2]; [6]
  Plant response rating, Nutsedge, Yellow: 5

## CCCc1cc(C(=O)NOC(C)C)nn1Cc1cc(C(F)(F)F)nn1C [Compound 203]
nutsedge, yellow [1]; [9]
  Nutsedge, Yellow plant response rating: 5
nutsedge, yellow [1]; [10]
  Nutsedge, Yellow plant response rating: 35
nutsedge, yellow [1]; 125 g ai/ha, 13 to 15 days
  Plant response rating, Nutsedge, Yellow: 85
nutsedge, yellow [1]; [11]
  Nutsedge, Yellow plant response rating: 90
wheat; [9]
  Wheat plant response rating: 40
wheat; [10]
  Wheat plant response rating: 75
wheat; 125 g ai/ha, 13 to 15 days
  Plant response rating, Wheat: 90
wheat; [11]
  Wheat plant response rating: 90
barnyardgrass
  Plant response rating, Barnyardgrass: 25
rice
  Plant response rating, Rice: 0
lambsquarters; [9]
  Lambsquarters plant response rating: 75
lambsquarters; [10]
  Lambsquarters plant response rating: 100
lambsquarters; 125 g ai/ha, 13 to 15 days
  Plant response rating, Lambsquarters: 100
lambsquarters; [11]
  Lambsquarters plant response rating: 100
blackgrass; [9]
  Blackgrass plant response rating: 30
blackgrass; [10]
  Blackgrass plant response rating: 50
blackgrass; 125 g ai/ha, 13 to 15 days
  Plant response rating, Blackgrass: 85
blackgrass; [11]
  Blackgrass plant response rating: 90

## CCc1cc(C(=O)NOC(C)C)nn1Cc1cccc(OC(F)(F)F)c1 [Compound 70]
nutsedge, yellow [1]; 250 g ai/ha
  Plant response rating (scale of 0 to 100), Nutsedge, Yellow: 85
nutsedge, yellow [1]; [3]
  Nutsedge, Yellow plant response rating: 0
nutsedge, yellow [1]; 62 g ai/ha, 13 to 15 days
  Plant response rating, Nutsedge, Yellow: 65
nutsedge, yellow [1]; [4]
  Nutsedge, Yellow plant response rating: 70
oat, wild; Postemergence, 31 g ai/ha
  Oat, Wild plant response rating: 20
oat, wild; [5]
  Plant response rating, Oat, Wild: 35
oat, wild; [12]
  Plant response rating, Oat, Wild: 20
oat, wild; [6]
  Plant response rating, Oat, Wild: 30
wheat; 250 g ai/ha
  Plant response rating (scale of 0 to 100), Wheat: 75
wheat; [3]
  Wheat plant response rating: 5
wheat; 62 g ai/ha, 13 to 15 days
  Plant response rating, Wheat: 10
wheat; [4]
  Wheat plant response rating: 65
ryegrass, Italian; [7]
  Plant response rating, Ryegrass, Italian: 50
ryegrass, Italian; 62 g ai/ha, scale 0 to 100, 0 no effect, 100 complete control
  Plant response rating, Ryegrass, Italian: 25
ryegrass, Italian; [8]
  Plant response rating, Ryegrass, Italian: 35
lambsquarters; 250 g ai/ha
  Plant response rating (scale of 0 to 100), Lambsquarters: 100
lambsquarters; [3]
  Lambsquarters plant response rating: 98
lambsquarters; 62 g ai/ha, 13 to 15 days
  Plant response rating, Lambsquarters: 98
lambsquarters; [4]
  Lambsquarters plant response rating: 100
blackgrass; 250 g ai/ha
  Plant response rating (scale of 0 to 100), Blackgrass: 85
blackgrass; [3]
  Blackgrass plant response rating: 65
blackgrass; 62 g ai/ha, 13 to 15 days
  Plant response rating, Blackgrass: 65
blackgrass; [4]
  Blackgrass plant response rating: 65
johnsongrass; Postemergence, 31 g ai/ha
  Johnsongrass plant response rating: 0
johnsongrass; [5]
  Plant response rating, Johnsongrass: 75
johnsongrass; [12]
  Plant response rating, Johnsongrass: 0
johnsongrass; [6]
  Plant response rating, Johnsongrass: 10
morningglory; Postemergence, 31 g ai/ha
  Morningglory plant response rating: 5
morningglory; [5]
  Plant response rating, Morningglory: 85
morningglory; [12]
  Plant response rating, Morningglory: 45
morningglory; [6]
  Plant response rating, Morningglory: 75
foxtail, giant; Postemergence, 31 g ai/ha
  Foxtail, Giant plant response rating: 5
foxtail, giant; [5]
  Plant response rating, Foxtail, Giant: 25
foxtail, giant; [12]
  Plant response rating, Foxtail, Giant: 10
foxtail, giant; [6]
  Plant response rating, Foxtail, Giant: 15
pigweed; Postemergence, 31 g ai/ha
  Pigweed plant response rating: 60
pigweed; [5]
  Plant response rating, Pigweed: 75
pigweed; [12]
  Plant response rating, Pigweed: 65
pigweed; [6]
  Plant response rating, Pigweed: 70
nutsedge, yellow [2]; Postemergence, 31 g ai/ha
  Nutsedge, Yellow plant response rating: 0
nutsedge, yellow [2]; [5]
  Plant response rating, Nutsedge, Yellow: 20
nutsedge, yellow [2]; [12]
  Plant response rating, Nutsedge, Yellow: 0
nutsedge, yellow [2]; [6]
  Plant response rating, Nutsedge, Yellow: 0
